Measurements from PMC4237514, “Novel amino-β-lactam derivatives as potent cholesterol absorption inhibitors” (European Journal of Medicinal Chemistry, 2014).

What was measured:
[1] = MTT cytotoxicity assay in hNPC1L1/MDCKII cells; type: cell-based; details: dog, MDCKII cells stably expressing human NPC1L1 (hNPC1L1/MDCKII), read-out: LC50, hNPC1L1/MDCKII
Method: (§1) Cytotoxicity of amino alcohols 5, 6 and their diastereoisomeric mixture 5/6 was analyzed using MTT cell proliferation assay and the LC50 values were determined in MDCKII wild type, hNPC1L1/MDCKII, and HepG2 cells (Table 2). MDCKII cells stably expressing human Niemann-Pick C1-like protein 1 (hNPC1L1/MDCKII) (Figure S1) are a pharmacologically validated system for investigating NPC1L1-mediated cholesterol uptake. The LC50 values were higher than 100 μM and considered nontoxic in all three cell lines. […] In addition, we tested the in vitro cytotoxicity of ezetimibe 1 and compounds 5, 6, and 5/6 (70:30) in combination with micelles and found all LC50 values to be above 100 μM (Figure S2).
(§2) Madin–Darby Canine Kidney II (MDCKII) cells, MDCKII cells stably expressing human NPC1L1 (hNPC1L1/MDCKII), and human HepG2 liver cells were maintained in DMEM (Dulbecco's Modified Eagle Medium, Invitrogen, USA) containing 100 units/mL penicillin and 100 μg/mL streptomycin supplemented with 10% FCS (Sigma–Aldrich, Germany). The cells were grown at 37 °C in a humidified 5% CO2 incubator. Stable transfection of MDCKII cells with human NPC1L1 protein was performed using Lipofectamine LTX (Invitrogen, USA) according to the manufacturer's protocol. Selection with 1 mg/mL G418 (Sigma–Aldrich, Germany) was started 2 days after transfection. The concentration of G418 was decreased to 500 μg/mL after 14 days. Stably transfected cells were maintained in DMEM containing 100 units/mL penicillin and 100 μg/mL streptomycin supplemented with 10% FCS and 500 μg/mL G418.
MDCKII, hNPC1L1/MDCKII, and HepG2 cells were seeded in 96-well microtiter plates on day 0 at densities of 3000 cells/well. On day 1, tested compounds (73 mM stock solution in DMSO) were added in five consecutive 10-fold dilutions (10^−8 to 10^−4 mol/L) and incubated for 72 h. Cytotoxicity of the compounds was assessed on day 4 by the MTT cell proliferation assay (Sigma–Aldrich, Germany) which detects mitochondrial dehydrogenase activity in viable cells. The results are expressed as LC50 and the values for each compound were calculated from dose–response curves using linear regression analysis. Each concentration was tested in quadruplicate in three independent experiments. Toxicity of the compounds in combination with micelles was also tested using the same method. MDCKII and hNPC1L1/MDCKII were seeded in 96-well microtiter plates (150 μL medium/well) at a density of 2 × 10^5 cells/mL medium 24 h before the experiment. Micelles were prepared according to the modified method reported by Field et al.. In brief, 0.25 mM oleic acid, 50 μM cholesterol, 10 μM compactin, 50 μM mevalonate, 5 mM Na-taurocholate (Sigma–Aldrich, Germany) in DMEM/10% FCS were mixed and sonicated. […] Thereafter, cytotoxicity was determined using the MTT assay.

[2] = tested on: MDCKII cells; experiment: MTT cytotoxicity assay in MDCKII wild type cells; type: cell-based; details: 72 h
Method: as §1, §2
MDCKII, hNPC1L1/MDCKII, and HepG2 cells were seeded in 96-well microtiter plates on day 0 at densities of 3000 cells/well. On day 1, tested compounds (73 mM stock solution in DMSO) were added in five consecutive 10-fold dilutions (10^−8 to 10^−4 mol/L) and incubated for 72 h. Cytotoxicity of the compounds was assessed on day 4 by the MTT cell proliferation assay (Sigma–Aldrich, Germany) which detects mitochondrial dehydrogenase activity in viable cells. The results are expressed as LC50 and the values for each compound were calculated from dose–response curves using linear regression analysis. Each concentration was tested in quadruplicate in three independent experiments. Toxicity of the compounds in combination with micelles was also tested using the same method. MDCKII and hNPC1L1/MDCKII were seeded in 96-well microtiter plates (150 μL medium/well) at a density of 2 × 10^5 cells/mL medium 24 h before the experiment. Micelles were prepared according to the modified method reported by Field et al.. In brief, 0.25 mM oleic acid, 50 μM cholesterol, 10 μM compactin, 50 μM mevalonate, 5 mM Na-taurocholate (Sigma–Aldrich, Germany) in DMEM/10% FCS were mixed and sonicated. Following the micellar formation, compounds 1, 5, 6, and 5/6 (70:30) (73 mM stock solution in DMSO) were added to the medium and vortexed to obtain the final concentrations of the compounds (25, 50, 100, 150, 200 μM) and applied to the cells for 1 h. Thereafter, cytotoxicity was determined using the MTT assay.

[3] = tested on: MDCKII wildtype cells; experiment: In vitro [3H]cholesterol uptake assay in MDCKII wildtype cells; type: cell-based, Canine; details: Figure S3
Method: Medium A contained DMEM plus 100 units/mL penicillin and 100 μg/mL streptomycin supplemented with 5% lipoprotein-deficient serum (density > 1.21 g/mL, prepared from FCS by ultracentrifugation). Cholesterol Replenishing Medium (Medium B) was prepared according to the modified method reported by Field et al.. In brief, 0.25 mM oleic acid, 50 μM free cholesterol, 10 μM compactin, 50 μM mevalonate, 5 mM Na-taurocholate (Sigma–Aldrich, Germany), and [^3H]cholesterol (0.18 μCi/mL medium, [1,2–3H(N)] cholesterol, 1 mCi/mL (ARC Inc., USA)) in Medium A were mixed and sonicated. Following the micellar formation, compounds 1, 5, 6, 5/6 (70:30), and 6/5 (85:15) (73 mM stock solution in DMSO) were added to Medium B and vortexed to obtain the final concentrations (10, 30, 60, 90, 120, 150, 200 μM).
MDCKII wildtype and hNPC1L1/MDCKII cells were seeded in 24-well plates at a density of 5 × 10^5 cells/mL medium (500 μL medium/well) in Medium A 24 h before the treatment. […] Cells were lysed and radioactivity in the lysate (100 μL) was determined by liquid scintillation counting. Protein concentrations of the lysates were determined with the DC Protein Assay (Bio-Rad, USA). The results were calculated as cpm/mg protein and expressed as percentage of inhibition compared to untreated cells. […]

[4] = pKa by spectrophotometric titration; type: physicochemical; details: λ 247 nm, pH 6–12, 20 °C
Method: We determined pKa values of the amino alcohols 5 (Fig. 9) and 6 (data not shown) using spectrophotometric titration.
Stock solution of amino alcohols 5 and 6 (160 μL, 2 mg/mL methanol) was added to NaCl solution in water (20 mL, 0.1 mol/L), thus resulting in a solution of each amino alcohol 5 and 6 in concentration of 4 × 10^−5 mol/L. Furthermore, solutions of NaOH (0.1 mol/L, 1 mol/L and 2 mol/L) were prepared in NaCl solution in water (100 mL, 0.1 mol/L). NaOH solutions (1.5–20 μL) were added to each solution of amino alcohol 5 or 6, pH values measured and UV spectra (λ 200–350 nm) recorded at pH 6–12. The titrations were performed at rt (20 °C) and inflection points of sigmoid curves at λ 247 nm were calculated as pKa values for both amino alcohols.

Row | Structure (SMILES) | CC50 at 72 h [1] [µM] | LC50, MDCKII [2] | CC50 at 96 h ([1]; 72 h) [µM] | effect on cholesterol uptake [3] | pKa [4]
1 | O=C1[C@H](NCC(O)c2ccc(F)cc2)[C@@H](c2ccc(O)cc2)N1c1ccc(F)cc1 (mixture of isomers) [5/6 (70:30), (3R,4R)-3-[(2R/S)-2-(4-fluorophenyl)-2-hydroxyethylamino]-1-(4-fluorophenyl)-4-(4-hydroxyphenyl)azetidin-2-one] | > 100 |  |  |  | 
2 | O=C1[C@H](CC[C@H](O)c2ccc(F)cc2)[C@@H](c2ccc(O)cc2)N1c1ccc(F)cc1 [Compound 1, ezetimibe, reference compound] |  | no toxicity | 62.3 | no effect | 
3 | O=C1[C@H](NC[C@H](O)c2ccc(F)cc2)[C@@H](c2ccc(O)cc2)N1c1ccc(F)cc1 [Compound 5] | > 100 |  |  |  | 9.35
4 | O=C1[C@H](NC[C@@H](O)c2ccc(F)cc2)[C@@H](c2ccc(O)cc2)N1c1ccc(F)cc1 [Compound 6, (3R,4R)-3-[(2S)-2-(4-fluorophenyl)-2-hydroxyethylamino]-1-(4-fluorophenyl)-4-(4-hydroxyphenyl)azetidin-2-one] | > 100 |  |  |  | 9.35
